Patent publication US6548638B2, “Peptoid and nonpeptoid containing α-keto oxadiazoles as serine protease inhibitors” (Cortech, Inc., priority 1998, dated 2003)

Tests used:
[1] = target: T1, HNE (elastase derived from human sputum, HSE) (Homo sapiens, UniProt P08246); assay: In vitro inhibition of elastase (rate assay, N-methoxysuccinyl-Ala-Ala-Pro-Val-p-nitroaniline substrate); assay type: biochemical; settings: inhibition activity against HNE; IC50 by log-logit method converted to K1 by Dixson plot; pH 8.0, 37° C.
T1 construct: The elastase used in the protocol was derived from human sputum (HSE); purchased Elastin Product Co., Inc, Missouri, USA SE-563; host or cells: human sputum (natural source)
T1 sequence (P08246 30-267): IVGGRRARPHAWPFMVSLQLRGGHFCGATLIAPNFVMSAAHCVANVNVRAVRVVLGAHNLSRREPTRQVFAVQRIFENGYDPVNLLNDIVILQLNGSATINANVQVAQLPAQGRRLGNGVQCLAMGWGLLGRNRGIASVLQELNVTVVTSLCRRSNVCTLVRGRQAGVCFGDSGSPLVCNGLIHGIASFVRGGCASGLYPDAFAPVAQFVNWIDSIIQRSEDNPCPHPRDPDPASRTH

[2] = system: elastase activity in whole blood; assay: Ex vivo inhibition of elastase (whole blood stimulated with opsonized zymosan, after oral administration); assay type: in vivo; settings: blood sampled 60 minutes after administration, 24 hour fasted animal; for Percent Inhibition at Indicated Dosage, 3 mg/kg: 3 mg/kg oral; for Percent Inhibition at Indicated Dosage, 10 mg/kg: 10 mg/kg oral; for Percent Inhibition at Indicated Dosage, 30 mg/kg: 30 mg/kg oral
Protocol: Sixty (60) minutes after the oral administration of an inhibitor with an appropriate vehicle, a blood sample (0.9 ml) is collected through the abdominal aorta by a syringe containing 0.1 ml of a 3.8% sodium citrate solution.
The blood sample is processed as follows: 60 μl of (final 0.1-1 mg/ml) a suspended solution of opsonized zymosan in Hank's buffer is added to the preincubated whole blood (540 μl) for 5 minutes at 37° C., and the resulting mixture is incubated for 30 minutes at the same temperature. The reaction is terminated by immersing the test tube into ice water. The reaction mixture is then centrifuged at 3,000 rpm for 10 minutes at 4° C. Twenty (20) μl of each of the resulting supernatant (the Sample) is measured for elastase activity.
The mixture consisting of the following components is incubated for 24 hours at 37° C., and then optical density is measured at 405 nm:
A test sample mixed with 1-methyl-2-pyrrolidone instead of the substrate is regarded as Substrate (−). A test sample mixed with saline instead of the Sample is regarded as Blank. The remaining elastase activity in the Sample is calculated according to the following: […]
optical density of Substrate (+)−(optical density of Substrate (−)+optical density of Blank)
as a total production of p-nitroaniline over 24 hours based on a standard curve for the amount of p-nitroaniline.
An average activity is calculated based on the test sample of 5-6 animals. An agent at 3, 10 or 30 mg/kg is orally given by a forced administration to a 24 hour fasted animal at 60 minutes before the blood sampling. Optical density is measured by SPECTRA MAX 250 (Molecular Devices).

Compound	Ki [1]	Percent Inhibition at Indicated Dosage, 3 mg/kg [2]	Percent Inhibition at Indicated Dosage, 10 mg/kg [2]	Percent Inhibition at Indicated Dosage, 30 mg/kg [2]
CC(C)C(NC(=O)Cn1c(-c2ccc(F)cc2)nccc1=O)C(=O)c1nnc(C(C)(C)c2ccc3c(c2)OCO3)o1 (racemic) [Example 10, 2-[6-Oxo-2-(4-fluorophenyl)-1,6-dihydro-1-pyrimidinyl]-N-[1-(2-[5-(α,α-dimethyl-3,4-methylenedioxybenzyl)-1,3,4-oxadiazolyl]carbonyl)-2-(R,S)-methylpropyl]acetamide]	1.53 nM	–	–	–
CC(C)C(NC(=O)Cn1c(-c2ccc(F)cc2)nccc1=O)C(=O)c1nnc(C(C)(C)c2ccccc2)o1 (racemic) [Example 11, 2-[6-Oxo-2-(4-fluorophenyl)-1,6-dihydro-1-pyrimidinyl]-N-[1-(2-[5-(α,α-dimethylbenzyl)-1,3,4-oxadiazolyl]carbonyl)-2-(R,S)-methylpropyl]acetamide]	5.34 nM	–	–	–
CC(C)C(NC(=O)Cn1c(-c2ccccc2)nccc1=O)C(=O)c1nnc(C(C)(C)c2ccccc2)o1 (racemic) [Example 12, 2-[6-Oxo-2-phenyl-1,6-dihydro-1-pyrimidinyl]-N-[1-(2-[5-(α,α-dimethylbenzyl)-1,3,4-oxadiazolyl]carbonyl)-2-(R,S)-methylpropyl]acetamide]	1.83 nM	–	–	–
COC(=O)NC(C(=O)N1CCCC1C(=O)NC(C(=O)c1nnc(C(C)(C)C)o1)C(C)C)C(C)C [Example 1, Methyloxycarbonyl-L-valyl-N-[1-(2-[5-(tert-butyl)oxadiazolyl]carbonyl)-2-(S)-methylpropyl]-L-prolinamide]	3 nM	–	–	–

Compounds with a lower Ki [1], results first:

Ki [1]	Compound	Percent Inhibition at Indicated Dosage, 3 mg/kg [2]	Percent Inhibition at Indicated Dosage, 10 mg/kg [2]	Percent Inhibition at Indicated Dosage, 30 mg/kg [2]
1.32 nM	COC(=O)NC(C(=O)N1CCCC1C(=O)NC(C(=O)c1nnc(C(C)(C)c2ccccc2)o1)C(C)C)C(C)C [Example 2, Methyloxycarbonyl-L-valyl-N-[1-(2-[5-(α,α-dimethylbenzyl)oxadiazolyl]carbonyl)-2-(S)-methylpropyl]-L-prolinamide]	7%	9%	62%
1.06 nM	CC(C)C(NC(=O)Cn1c(-c2ccccc2)ncc(N)c1=O)C(=O)c1nnc(C(C)(C)c2ccc3c(c2)OCO3)o1 (racemic) [Example 8, 2-[5-Amino-6-oxo-2-phenyl-1,6-dihydro-1-pyrimidinyl]-N-[1-(2-[5-(α,α-dimethyl-3,4methylenedioxybenzyl)-1,3,4-oxadiazolyl]carbonyl)-2-(R,S)-methylpropyl]acetamide]	–	–	–
0.34 nM	CC(C)C(NC(=O)Cn1c(-c2ccccc2)nccc1=O)C(=O)c1nnc(C(C)(C)c2ccc3c(c2)OCO3)o1 (racemic) [Example 9, 2-[6-Oxo-2-phenyl-1,6-dihydro-1-pyrimidinyl]-N-[1-(2-[5-(α,α-dimethyl-3,4-methylenedioxybenzyl)-1,3,4-oxadiazolyl]carbonyl)-2-(R,S)-methylpropyl]acetamide]	–	–	–
0.24 nM	COC(=O)NC(C(=O)N1CCCC1C(=O)NC(C(=O)c1nnc(C(C)(C)c2ccc3c(c2)OCO3)o1)C(C)C)C(C)C [Example 3, Methyloxycarbonyl-L-valyl-N-[1-(2-[5-(α,α-dimethyl-3,4-methylenedioxybenzyl)-1,3,4-oxadiazolyl]carbonyl)-2-(S)-methylpropyl]-L-prolinamide]	44%	69%	99%
